Assay results published in patent US20060099568A1, “Signals and molecular species involved in senescence” (priority 2002, published 2006).
“Also recorded” adds a separate entry of the source.

Key:
[1] = test system: phosphodiesterases (PDEs); test: measurement of phosphodiesterase activity in LPA-treated cells; assay type: cell-based, human; conditions: 30 μg/ml LPA
Experimental: Subconfluent presenescent (passage 8, Pa 8) and near-senescent (passage 24, Pa 24) fibroblasts were serum-starved for 2 days and treated with 30 μg/ml LPA for the indicated times. The activities of adenylyl cyclase (A) and phosphodiesterase (B) were determined in the fresh membranes and total cell lysates as described in Materials and Methods. The enzyme activities were calculated as pmol/μg/min. The data represents an average of triplicate experiments.
Phosphodiesterase (PDE) assays were performed as described previously (Jang and Juhnn, 2001). 15 μg of cytosolic proteins were incubated in 200 μl of reaction mixture containing 50 mM Tris-HCl, pH 7.4, 3 mM MgCl2, 60 pmol cAMP, 1 mM 5′-AMP for 15 min at 37° C. After the reaction was stopped by adding 2.0 M perchloric acid, the amount of remaining cAMP was determined by cAMP binding assay.

[2] = test system: human diploid fibroblasts; test: measurement of cytosolic free [Ca2+]i by confocal microscopy (fluo-3-AM); assay type: cell-based; conditions: PDGF 50 ng/ml, LPA 1 μg/ml
Experimental: FIG. 1 represents differential changes in growth factor-stimulated calcium release in senescent fibroblasts. Presenescent (passage 7: A and C) and senescent (passage 27: B and D) fibroblasts were grown on coverslips, serum-starved, and incubated with 4 μM fluo-3-AM in serum-free medium for 40 min. The stained cells were treated with […] of platelet-derived growth factor (A and B) or 1 μg/ml of lysophosphatidic acid (C and D) via a micro-perfusion system for the real-time measurement of signaling molecules, and laser scanning confocal microscopy. The scanned images were analyzed for changes in intracellular Ca^2+ at the single cell level and results expressed as relative fluorescence intensity (RFI).
[Ca^2+]i was measured using a laser scanning confocal microscope, as described by Junn et al. (2000). Quiescent fibroblasts grown on glass cover slips in a 6-well plate were stained with 4 μM of fluo-3-acetoxymethyl ester (fluo-3-AM) in phenol red-free medium without serum for 40 min and washed three times with the serum-free medium. Stained cells on each cover slip were mounted on a perfusion chamber (MPS-1000, Seoul Engineering, Korea), placed under the confocal laser scanning microscope (Carl Zeiss LSM 410), and scanned every 5 sec with a 488 nm excitation argon laser and a 515 nm long pass emission filter. Growth factors were added to the cells using an automatic pumping system (self-designed). All scanned images were analyzed for [Ca ^2+]i changes at the single cell level using “Time Series Program” for a real-time measurement of relative fluorescence intensity (RFI) which is installed in the Carl Zeiss LSM 410 confocal system.

[3] = test system: human diploid fibroblasts; test: DNA synthesis, [3H]thymidine incorporation; assay type: cell-based
Experimental: FIG. 5 represents reduction of growth factor-induced thymidine incorporation in near-senescent fibroblasts. […] The amount of [^3H]thymidine incorporated into DNA over 4 hrs was measured as described. The data represents an average of 3 counts in cpm. A representative experiment of the three is presented in A. Fold increase over the untreated control was calculated and plotted in B.
FIG. 18 represents changes in LPA-induced thymidine incorporation and cell proliferation in near-senescent fibroblasts versus presenescent fibroblasts. Subconfluent presenescent (passage 8, Pa 8) and near-senescent (passage 24, Pa 24) fibroblasts were serum-starved for 2 days and treated with LPA (1-70 μg/ml) for 16 hrs. The amount of [^3H]thymidine incorporated into DNA over 4 hrs was measured as described. The data represents an average of 3 counts in cpm in each independent experiments. A representative experiment of the three is presented in A. Converted fold increase over the untreated control was calculated and plotted in B.
Quiescent cells were labeled with [^3H]thymidine (0.5 μCi/ml) for 4 hrs and the […] radioactive thymidine was removed by washing with PBS. DNA was precipitated with 10% TCA and lysed in 0.5N NaOH. The radioactivity in neutralized lysates was counted in a liquid scintillation cocktail.

[4] = test system: human diploid fibroblasts; test: growth factor-stimulated signaling events in human diploid fibroblasts; assay type: cell-based
Experimental: Foreskin fibroblasts were isolated as described by Boyce and Ham (1983). Cells were cultured in Dulbecco's modified Eagle's medium containing 10% fetal bovine serum and antibiotics. The primary culture contained smaller and more closely packed cells during the early stage of the culture. Cells with less than 10 passage were often considered as presenescent cells. As the cells were passaged, they became larger and they have a slower growth rate at passage 10-20. Cells from over 27 passages were completely growth-arrested and developed characteristic appearance designated previously as replicative senescence (Yeo et al., 2000a and b). In order to confirm that cells were senescent, we either examined the activity of beta-galactosidase or stained with X-gal, a membrane permeable substrate of the enzyme, which produces a blue insoluble product inside of the cells. The number of cells stained with X-gal increased with age and most of cells from passage 27-28 were stained. Cultures of over 23-28 passages have also shown the cessation of cell growth and senescence-like morphological changes, but only 70-80% of cells were stained with X-gal. These were termed “near-senescent”. Although the near-senescent cultures were not completely homogeneous, we compared the changes in these cultures to those in presenescent cultures of passage 6-10. In order to determine the growth factor-stimulated signaling events, cells were grown for 1-2 days to 60-70% sub-confluency in the culture medium, and then serum-starved to become quiescent by incubating with serum free medium (SFM) for 2 days. The quiescent cells were treated with various agonists, as described in the figure legends. To label cells, radioactive chemicals were added during the incubation with SFM.
Primary human diploid fibroblasts, isolated from newborn foreskins, were used to study the mechanism of reduced response to growth factor stimulation with aging. These cells were maintained and passaged as described previously (Yeo et al., 2000a). […] Compared to their presenescent counterparts, the senescent and near-senescent cells were larger and grew to lower density, as has been observed in other cell systems. Here the present inventors report upon the differential changes in the signaling events evoked by platelet-derived growth factor (PDGF) and lysophosphatidic acid (LPA). PDGF elicits signaling events over a concentration range of 10-100 ng/ml, whereas LPA stimulates the hydrolysis of phospholipids, Ca^2+ mobilization, and actin polymerization over a concentration range of 0.1-10 μg/ml in human diploid fibroblasts. In order to compare their cellular responses, we treated presenescent and senescent (or near-senescent) cells with PDGF and LPA at a maximally responsive dose of 50 ng/ml and 1 μg/ml, respectively.

PKC = PKC activation (aggregation and translocation of PKC-α, confocal microscopy); assay type: cell-based, human; conditions: near-senescent cells (passage 29); 30 μg/ml LPA
Experimental: FIG. 16 represents PKC activation by LPA in presenescent and near-senescent human diploid fibroblasts. Subconfluent presenescent (passage 10, Pa 10) and near-senescent (passage 29, Pa 29) fibroblasts were serum-starved for 2 days and treated with 30 μg/ml LPA for the indicated times. PKC activation was indicated by aggregation and translocation of PKC proteins into the plasma membrane. PKC-α was detected under a confocal microscopy system with polyclonal anti-PKC-α antibodies and FITC-conjugated secondary antibodies.

Question: Which results are given for lysophosphatidic acid [LPA]?
Answer: PDE activity ([1]; near-senescent cells): reduced; PDE activity ([1]; presenescent cells): increased; cytosolic Ca2+ levels ([2]; presenescent fibroblasts (passage 7)): rapid increase; Ca2+ response in senescent cells relative to presenescent ([2]; senescent cells (passage 27)): not significantly; fold increase of [3H]thymidine incorporation over untreated control, near-senescent vs presenescent ([3]; 50-70 μg/ml LPA): slightly higher; agonist-induced DNA synthesis ([3H]thymidine incorporation) in near-senescent cells vs presenescent ([3]; near-senescent cells (passage 24)): reduced but less so than PDGF; also recorded: reduced; concentration at which increase of [3H]thymidine incorporation is apparent ([3]; presenescent fibroblasts): 10 µg/mL; concentration at which increase of [3H]thymidine incorporation is maximal ([3]; presenescent fibroblasts): 50 to 70 µg/mL; concentration range stimulating hydrolysis of phospholipids, Ca2+ mobilization and actin polymerization ([4]; human diploid fibroblasts): 0.1 to 10 µg/mL; maximally responsive dose ([4]; presenescent and senescent (or near-senescent) cells): 1 µg/mL; PKC activation (PKC): further increase in PKC activation
